The subject of assay [1] is HCT-116 Bcl-2+ colon carcinoma. In words: Disease free survival of nude mice challenged with HCT-116 Bcl-2+ cells. Format: in vivo. Conditions: 5 mg/kg 4-5 times weekly for 3 weeks; log-rank P=0.0136. As to the method:
Animal experiments were conducted in full accordance with Swedish governmental statutory regulations on animal welfare under permission from local ethical committees. Animals were housed at a max of five per cage and provided with sterile water and food ad libitum. All mice were monitored and weighed daily. For the head and neck carcinoma model a 100-μl cell suspension containing 1×10^6 FaDu cells was injected subcutaneously into the right rear flank of the animals. After injection, tumor growth was measured daily with calipers and the tumor volume calculated by the formula […]. When tumors had grown to a size of approximately 200 mm^3 (Day 0) mice were randomized to receive either vehicle (n=10) or b-AP15 5 mg/kg^−1 by subcutaneous injection s.c. (n=15) daily. […] Nineteen days after malignant cell injection all of the mice were killed and histopathological manifestations of liver, ovary (target organs for this model of tumor) were evaluated and compared between groups. […]
SCID mice bearing FaDu human tumor xenografts were randomized at tumor take (200 mm^3) and treated by daily subcutaneous injection with either vehicle (n=10) or 5 mg kg^−1 b-AP15 (n=15) for 10 days. […] Mice were treated with vehicle (n=6) or 5 mg kg^−1 b-AP15 (n=6) 4-5 times weekly for 3 weeks and monitored for tumor onset (log-rank, P=0.0136, hazard ratio=7.9). […]

The next assay relates to HCT-116 cells. In words: Cell-cycle analysis, propidium iodide staining and flow cytometry. Format: cell-based. Here is the method:
The turnover of many cell cycle regulatory proteins is controlled by the UPS including inhibitors of the cyclin-dependent kinases p21 Cip1, p27 Kip1 and the tumor suppressor p53 (4). Treatment with b-AP15 increased their levels in a dose dependent manner.
For determination of cell cycle HCT-116 cells were treated with b-AP15 or DMSO Cells were harvested by trypsinisation, washed and fixed in 70% ice cold EtOH for 12 h. Cells were re-suspended in staining solution containing propidium iodide (50 μg/ml) and RNAse A (0.5 μg/ml) in PBS. Samples were run on BD FACScalibur. The percentage of cells in each phase of the cell cycle was determined using ModFit software.
b-AP15 inhibits degradation of ubiquitin-tagged YFP in a proteasome reporter cell line (FIG. 1a). Levels of ^UbG76V-YFP accumulation were determined by flow cytometry and immunoblotting; immunoblot of ubiquitin conjugation in HCT-116 cells treated with b-AP15 (1 μM) or bortezomib (100 nM) (FIG. 1b). Immunoblot of ubiquitin conjugates, caspase 3 activation PARP cleavage, p53. P21^Cip1 and p^Kip1 in HCT-116 cells following 24 h treatment with the indicated concentrations of b-AP15 (FIG. 1c). […]
A general note: A flow cytometer gives signals particle by particle.

Results on one molecule are retold here after US9856511B2, “Protease deubiquitinating inhibitor screening” (priority 2011, dated 2018).

The structures appear in SMILES notation.

For the molecule `C=CC(=O)N1C/C(=C\c2ccc([N+](=O)[O-])cc2)C(=O)/C(=C/c2ccc([N+](=O)[O-])cc2)C1` [b-AP15], in assay [1], the “disease free survival (tumor onset), hazard ratio” value came out at 7.9. Moreover, in the assay with HCT-116 cells, the cell cycle effect result was “cell cycle arrest in the G2/M phase boundary”.
